Numbers after ± are expanded uncertainties.
Details: 298 K; 101.33 kPa; Liquid; Vibrating tube method

| Structure (SMILES) | mass density [kg/m3] |
| --- | --- |
| CCCCCCCCCC [decane] | 722.439 ± 0.28 |
| OCCOCCO [diethylene glycol] | 1109.16 ± 0.34 |
| Cc1ccccc1 [toluene] | 857.606 ± 0.19 |
| OCCOCCOCCO [triethylene glycol] | 1116.05 ± 0.34 |

Reference: the NIST ThermoML archive (doi:10.1016/j.fluid.2014.12.027)
